For 19 compounds, IC50 results are on record in patent publication US11304946B2, “2-hetarylpyrimidine-4-carboxamides as aryl hydrocarbon receptor antagonists” (Bayer Aktiengesellschaft, priority 2017, dated 2022).

Experiment [1] addresses T1, Human AhR (Homo sapiens, UniProt P35869).
T1 construct: host or cells: U87 glioblastoma cells, stably transfected with DRE-driven firefly luciferase and constitutive renilla reporter constructs
T1 sequence (P35869 11-848): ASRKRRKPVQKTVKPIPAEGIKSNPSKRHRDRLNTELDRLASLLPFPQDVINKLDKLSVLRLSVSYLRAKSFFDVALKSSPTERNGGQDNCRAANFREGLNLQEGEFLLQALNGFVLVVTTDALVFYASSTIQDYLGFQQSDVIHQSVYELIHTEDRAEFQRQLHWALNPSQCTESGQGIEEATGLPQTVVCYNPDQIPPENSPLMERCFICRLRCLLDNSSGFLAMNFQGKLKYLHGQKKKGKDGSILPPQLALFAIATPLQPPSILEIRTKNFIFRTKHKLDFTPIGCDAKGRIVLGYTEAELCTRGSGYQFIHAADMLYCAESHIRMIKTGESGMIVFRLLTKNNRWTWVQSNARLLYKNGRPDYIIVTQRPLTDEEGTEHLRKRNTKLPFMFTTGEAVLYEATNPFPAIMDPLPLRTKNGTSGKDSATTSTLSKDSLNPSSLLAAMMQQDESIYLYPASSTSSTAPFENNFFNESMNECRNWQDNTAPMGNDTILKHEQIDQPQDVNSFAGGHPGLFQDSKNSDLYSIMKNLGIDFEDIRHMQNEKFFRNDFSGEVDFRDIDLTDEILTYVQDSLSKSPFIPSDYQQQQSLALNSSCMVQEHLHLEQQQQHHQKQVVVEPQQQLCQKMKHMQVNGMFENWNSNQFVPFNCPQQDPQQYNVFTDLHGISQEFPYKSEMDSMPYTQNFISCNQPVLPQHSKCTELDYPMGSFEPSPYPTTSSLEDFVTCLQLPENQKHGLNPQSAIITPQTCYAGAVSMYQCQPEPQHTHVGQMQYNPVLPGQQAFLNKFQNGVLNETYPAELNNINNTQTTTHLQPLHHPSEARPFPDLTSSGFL
In words: Transactivation assay in human cell line (in vitro assay 1: antagonism). The settings on record: U87 glioblastoma cells, AHR inducible (DRE) firefly luciferase reporter, 150 μM kynurenic acid, 20 hours. The experiment is classed as cell-based. How it is done: Transactivation Assay in Human Cell Line (In Vitro Assay 1)
Transactivation assay was carried out in U87 glioblastoma cells (ATCC) endogenously expressing AHR. In addition the cells were stably transfected with an AHR inducible firefly luciferase reporter gene construct that carried AHR-binding sites (DRE) in its promoter and a renilla reporter gene construct with constitutively active promoter. Kynurenic acid is an endogenous AHR activating ligand and was used to prestimulate test cells prior to testing the antagonistic properties of compounds.
In Vitro Assay 1: Antagonism in Human Cell Line
Firefly luciferase and Renilla activity was determined by the DualGlo Luciferase Assay System (Promega, #2920). Renilla activity was used to assess toxic effects of compounds.
On the technique in general: Reporter assays use an easily measured gene product as a stand-in for the process of interest.

Experiment [2] has as its target T2, Mouse AhR (Mus musculus, UniProt P30561).
T2 sequence (P30561 1-848): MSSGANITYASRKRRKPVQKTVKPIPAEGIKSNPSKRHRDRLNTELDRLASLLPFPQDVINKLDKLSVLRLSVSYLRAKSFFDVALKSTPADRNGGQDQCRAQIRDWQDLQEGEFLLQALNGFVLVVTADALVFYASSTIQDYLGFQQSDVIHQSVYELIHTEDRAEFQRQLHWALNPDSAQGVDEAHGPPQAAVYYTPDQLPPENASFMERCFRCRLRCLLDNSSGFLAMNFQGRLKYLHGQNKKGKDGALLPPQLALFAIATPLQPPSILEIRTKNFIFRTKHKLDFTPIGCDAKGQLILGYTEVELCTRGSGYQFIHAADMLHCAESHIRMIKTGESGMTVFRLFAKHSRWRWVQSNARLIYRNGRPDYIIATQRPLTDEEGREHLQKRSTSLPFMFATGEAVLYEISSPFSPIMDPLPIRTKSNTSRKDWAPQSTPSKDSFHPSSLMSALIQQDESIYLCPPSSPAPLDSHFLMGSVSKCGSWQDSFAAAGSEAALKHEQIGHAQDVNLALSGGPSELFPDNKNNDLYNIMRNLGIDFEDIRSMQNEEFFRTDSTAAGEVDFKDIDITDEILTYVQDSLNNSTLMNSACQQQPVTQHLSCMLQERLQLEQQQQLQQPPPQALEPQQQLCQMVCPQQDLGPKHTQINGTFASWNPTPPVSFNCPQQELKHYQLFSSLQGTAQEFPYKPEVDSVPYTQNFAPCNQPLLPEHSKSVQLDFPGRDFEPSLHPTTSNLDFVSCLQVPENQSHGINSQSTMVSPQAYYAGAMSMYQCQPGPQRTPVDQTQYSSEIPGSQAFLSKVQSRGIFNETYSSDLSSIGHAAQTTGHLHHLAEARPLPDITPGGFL
In words: Transactivation assay in mouse cell line (in vitro assay 2: antagonism). It is filed as cell-based. The settings on record: Hepa 1c1c7 cells, AHR inducible (DRE) firefly luciferase reporter, 200 μM kynurenic acid, 20 hours. The protocol:
Transactivation Assay in Mouse Cell Line (In Vitro Assay 2)
Transactivation assay was carried out in Hepa 1c1c7 cells (ATCC #CRL-2026) endogenously expressing AHR. In addition the cells were stably transfected with an AHR inducible firefly luciferase reporter gene construct that carried AHR-binding sites (DRE) in its promoter. Kynurenic acid is an endogenous AHR activating ligand and was used to prestimulate test cells prior to testing the antagonistic properties of compounds.
In Vitro Assay 2: Antagonism in Mouse Cell Line
Firefly luciferase activity was determined by the SteadyGlo Luciferase Assay System (Promega, #E2550).

Structures are written as SMILES.

Turning to `CC(C)(O)CNC(=O)c1cc(-c2ccc(OC(F)(F)F)cc2)nc(-c2cccnc2)n1` [Example 3, N-(2-hydroxy-2-methylpropyl)-2-(pyridin-3-yl)-6-[4-(trifluoromethoxy)phenyl]pyrimidine-4-carboxamide], the values for the IC50 in experiment [1] and in experiment [2] were 3.86 nM and 7.81 nM, respectively.

Regarding `C[C@@H](CO)NC(=O)c1cc(-c2ccc(OC(F)(F)F)cc2)nc(-c2cnn(C)c2)n1` [Example 5, N-[(2S)-1-hydroxypropan-2-yl]-2-(1-methyl-1H-pyrazol-4-yl)-6-[4-(trifluoromethoxy)phenyl]pyrimidine-4-carboxamide], the IC50 – broadly, the concentration that inhibits the measured activity by half – in experiment [1] is 3.68 nM; in experiment [2], 2.92 nM.

With `Cn1cc(-c2nc(C(=O)NCC(C)(C)O)cc(-c3ccc(OC(F)(F)F)cc3)n2)cn1` [Example 6, N-(2-hydroxy-2-methylpropyl)-2-(1-methyl-1H-pyrazol-4-yl)-6-[4-(trifluoromethoxy)phenyl]pyrimidine-4-carboxamide], the IC50 was 7.53 nM in experiment [1] and 15 nM in experiment [2].

On to `Cn1cc(-c2nc(C(=O)NCC(C)(C)O)cc(-c3ccc(C(F)(F)F)cc3)n2)cn1` [Example 8, N-(2-hydroxy-2-methylpropyl)-2-(1-methyl-1H-pyrazol-4-yl)-6-[4-(trifluoromethyl)phenyl]pyrimidine-4-carboxamide], for which the IC50 was determined as 2.57 nM in experiment [1] and 7.19 nM in experiment [2].

On to `C[C@@H](CO)NC(=O)c1cc(-c2ccc(Cl)cc2)nc(-c2cccnc2)n1` [Example 9, 6-(4-chlorophenyl)-N-[(2S)-1-hydroxypropan-2-yl]-2-(pyridin-3-yl)pyrimidine-4-carboxamide], for which the figures for the half-maximal inhibitory concentration (IC50) in experiment [1] and in experiment [2] were 1.1 nM and 2.84 nM, respectively.

For the compound `CC(C)(O)CNC(=O)c1cc(-c2ccc(Cl)cc2)nc(-c2cccnc2)n1` [Example 10, 6-(4-chlorophenyl)-N-(2-hydroxy-2-methylpropyl)-2-(pyridin-3-yl)pyrimidine-4-carboxamide], the IC50 in experiment [1] is 1.38 nM; in experiment [2], 8.42 nM.

For the compound `C[C@@H](CO)NC(=O)c1cc(-c2ccc(Cl)cc2)nc(-c2cnn(C)c2)n1` [Example 11, 6-(4-chlorophenyl)-N-[(2S)-1-hydroxypropan-2-yl]-2-(1-methyl-1H-pyrazol-4-yl)pyrimidine-4-carboxamide], the IC50 stood at 3.93 nM in experiment [1] and 7.94 nM in experiment [2].

As for `C[C@H](CO)NC(=O)c1cc(-c2ccc(Cl)cc2)nc(-c2cnn(C)c2)n1` [Example 12, 6-(4-chlorophenyl)-N-[(2R)-1-hydroxypropan-2-yl]-2-(1-methyl-1H-pyrazol-4-yl)pyrimidine-4-carboxamide], the IC50 was 73.4 nM in experiment [1] and 206 nM in experiment [2].

`Cn1cc(-c2nc(C(=O)NCC(C)(C)O)cc(-c3ccc(Cl)cc3)n2)cn1` [Example 13, 6-(4-chlorophenyl)-N-(2-hydroxy-2-methylpropyl)-2-(1-methyl-1H-pyrazol-4-yl)pyrimidine-4-carboxamide]: the IC50 in experiment [1] stood at 14.3 nM; in experiment [2], 58.1 nM.

For the compound `CC(C)(O)CNC(=O)c1cc(-c2ccc(OC(F)(F)F)cc2)nc(-c2cn[nH]c2)n1` [Example 20, N-(2-hydroxy-2-methylpropyl)-2-(1H-pyrazol-4-yl)-6-[4-(trifluoromethoxy)phenyl]pyrimidine-4-carboxamide], the IC50 in experiment [1] stood at 717 nM; in experiment [2] it was 354 nM.

As to `Cc1ncc(-c2nc(C(=O)NCC(C)(C)O)cc(-c3ccc(OC(F)(F)F)cc3)n2)cn1` [Example 21, N-(2-hydroxy-2-methylpropyl)-2′-methyl-6-[4-(trifluoromethoxy)phenyl][2,5′-bipyrimidine]-4-carboxamide], the IC50 was 379 nM in experiment [1] and 2130 nM in experiment [2].

Take `CC(C)(O)CNC(=O)c1cc(-c2ccc(OC(F)(F)F)cc2)nc(-c2cnoc2)n1` [Example 22, N-(2-hydroxy-2-methylpropyl)-2-(1,2-oxazol-4-yl)-6-[4-(trifluoromethoxy)phenyl]pyrimidine-4-carboxamide]: the IC50 in experiment [1] is 1100 nM; in experiment [2] it was 5530 nM.

For `Cc1[nH]ncc1-c1nc(C(=O)NCC(C)(C)O)cc(-c2ccc(OC(F)(F)F)cc2)n1` [Example 24, N-(2-hydroxy-2-methylpropyl)-2-(3-methyl-1H-pyrazol-4-yl)-6-[4-(trifluoromethoxy)phenyl]pyrimidine-4-carboxamide], the IC50 in experiment [1] came out at 208 nM; in experiment [2] it was 359 nM.

As to `Cc1nn(C)cc1-c1nc(C(=O)NCC(C)(C)O)cc(-c2ccc(OC(F)(F)F)cc2)n1` [Example 25, 2-(1,3-dimethyl-1H-pyrazol-4-yl)-N-(2-hydroxy-2-methylpropyl)-6-[4-(trifluoromethoxy)phenyl]pyrimidine-4-carboxamide], the figures for the IC50 in experiment [1] and in experiment [2] were 8.05 nM and 110 nM, respectively.

As to `C[C@@H](CO)NC(=O)c1cc(-c2ccc(OC(F)(F)F)cc2)nc(-c2ccc(C#N)s2)n1` [Example 28, 2-(5-cyanothiophen-2-yl)-N-[(2S)-1-hydroxypropan-2-yl]-6-[4-(trifluoromethoxy)phenyl]pyrimidine-4-carboxamide], the IC50 in experiment [1] amounted to 167 nM; in experiment [2] it was 229 nM.

With `C[C@@H](CO)NC(=O)c1cc(-c2ccc(OC(F)(F)F)cc2)nc(-c2ccc(Cl)s2)n1` [Example 32, 2-(5-chlorothiophen-2-yl)-N-[(2S)-1-hydroxypropan-2-yl]-6-[4-(trifluoromethoxy)phenyl]pyrimidine-4-carboxamide], the half-maximal inhibitory concentration (IC50) in experiment [1] was found to be 46.2 nM; in experiment [2] it was 38.8 nM.

For `C[C@@H](CO)NC(=O)c1cc(-c2ccc(OC(F)(F)F)cc2)nc(-c2ccnn2C)n1` [Example 34, N-[(2S)-1-hydroxypropan-2-yl]-2-(1-methyl-1H-pyrazol-5-yl)-6-[4-(trifluoromethoxy)phenyl]pyrimidine-4-carboxamide], the half-maximal inhibitory concentration (IC50) in experiment [1] was found to be 29.6 nM; in experiment [2], 24 nM.

Take `Cc1noc(C)c1-c1nc(C(=O)N[C@@H](C)CO)cc(-c2ccc(OC(F)(F)F)cc2)n1` [Example 35, 2-(3,5-dimethyl-1,2-oxazol-4-yl)-N-[(2S)-1-hydroxypropan-2-yl]-6-[4-(trifluoromethoxy)phenyl]pyrimidine-4-carboxamide]: the results for the IC50 in experiment [1] and in experiment [2] were 1030 nM and 5310 nM, respectively.

For `CC(C)Cn1cc(-c2nc(C(=O)N[C@@H](C)CO)cc(-c3ccc(OC(F)(F)F)cc3)n2)cn1` [Example 36, N-[(2S)-1-hydroxypropan-2-yl]-2-[1-(2-methylpropyl)-1H-pyrazol-4-yl]-6-[4-(trifluoromethoxy)phenyl]pyrimidine-4-carboxamide], the figures for the IC50 in experiment [1] and in experiment [2] were 5220 nM and 10000 nM, respectively.
